Measured values reported in patent publication US10328094B2, “Compound from the avermectin family for treating and/or preventing folliculitis” (GALDERMA SA, priority 2015, dated 2019).
Entries after “also recorded” stand apart in the source; their conditions may differ.

Assays:
[1] = tested on: primary human keratinocytes; assay: CXCL14 and CCL5 protein concentration by ELISA assay in primary human keratinocytes; type: cell-based
Experimental: Another objective of the present study was to identify the effect of ivermectin on the CXCL14 and CCL5 protein level of
(§1) To do this, primary human keratinocytes were cultured with various concentrations of EGFR inhibitor (in this case erlotinib) each with +/− TNF-α/IL-1β, various concentrations of ivermectin alone each with +/− TNF-α/IL-1β various concentrations of erlotinib and of ivermectin each with +/− TNF-α/IL-1β. The addition of the pro-inflammatory cytokines TNFα and IL1β makes it possible to mimic the skin inflammation.
(§2) The various concentrations used were the following: • Erlotinib: 0-0.1 μM-1 μM-10 μM (each with +/− TNF-α/IL-1β) • Ivermectin: 0-0.1 μM-1 μM-10 μM (each with +/− TNF-α/IL-1β) • Co-stimulation: • Erlotinib (0.1 μM)+Ivermectin (1 μM) (+/− TNF-α/IL-1β) • Erlotinib (0.1 μM)+Ivermectin (5 μM) (+/− TNF-α/IL-1β) • Erlotinib (1 μM)+Ivermectin (1 μM)+/− TNF-α/IL-1β) • Erlotinib (1 μM)+Ivermectin (5 μM) (+/− TNF-α/IL-1β)
(§3) The expression of the CXCL14, CCL5 (chemokines), RNase 7, HBD3 and LL37 (antimicrobial peptides) genes was analyzed by quantitative PCR. The protein concentration of the chemokines CXCL14 and CCL5 was quantified using an ELISA assay.

[2] = tested on: primary human keratinocytes; assay: Gene expression by quantitative PCR in primary human keratinocytes treated with erlotinib and/or ivermectin +/- TNF-α/IL-1β; type: cell-based
Experimental: A study was carried out on primary human keratinocytes in vitro, in order to determine the effect of ivermectin on the regulation of genes of which the expression has been identified as being modulated by EGFR inhibitors. Said genes identified are the pro-inflammatory chemokines CCL2, CCL5, CCL27 and CXCL14 and the cytokines of the IL-1β family, but also the genes of antimicrobial peptides RNase7, HBD3 and LL37.
as §1, §2, §3

[3] = erlotinib and TNFα/IL1β, without ivermectin
[4] = erlotinib without ivermectin, listed as erlitonib
[5] = ivermectin in combination with erlotinib, +/- TNFα/IL1β

| expression of RNase 7 (gene, quantitative PCR) ([2]; erlotinib without ivermectin) | SMILES | CCL5 protein concentration (ELISA) [1, 3] | CXCL14 protein concentration (ELISA) [1, 3] | expression of CCL5 (gene, quantitative PCR) ([2]; erlotinib without ivermectin) | expression of CXCL14 (gene, quantitative PCR) ([2]; erlotinib without ivermectin) | expression of HBD3 (gene, quantitative PCR) ([2]; erlotinib without ivermectin) | expression of CCL5 (gene, quantitative PCR) [2, 4] | expression of CXCL14 (gene, quantitative PCR) [2, 4] | CXCL14 protein level (ELISA) ([1]; ivermectin in combination with erlotinib and TNFα/IL1β) | expression of CCL5 (gene, quantitative PCR) [2, 5] | expression of CXCL14 (gene, quantitative PCR) [2, 5] | expression of HBD3 (gene, quantitative PCR) [2, 5] | expression of RNase 7 (gene, quantitative PCR) ([2]; ivermectin in combination with erlotinib, various concentrations) |
| --- | --- | --- | --- | --- | --- | --- | --- | --- | --- | --- | --- | --- | --- |
| greatly decreased | C#Cc1cccc(Nc2ncnc3cc(OCCOC)c(OCCOC)cc23)c1 [erlotinib] | increase | increase | induction | induction | decreased | overexpression | overexpression | – | – | – | – | – |
| – | CC[C@H](C)[C@H]1O[C@]2(CC[C@@H]1C)C[C@@H]1C[C@@H](C/C=C(\C)[C@@H](O[C@H]3C[C@H](OC)[C@@H](O[C@H]4C[C@H](OC)[C@@H](O)[C@H](C)O4)[C@H](C)O3)[C@@H](C)/C=C/C=C3\CO[C@@H]4[C@H](O)C(C)=C[C@@H](C(=O)O1)[C@]34O)O2 [ivermectin] | – | – | – | – | – | – | – | decrease the protein level | significant modification of the induction; also recorded: reduce the overexpression | significant modification of the induction; also recorded: reduce the overexpression | induce the expression | re-establish the expression of RNase 7 greatly decreased in the presence of erlotinib but also to induce a strong expression thereof |
